According to patent US7816520B2, “5,6-diphenyl-1,2,4-triazinic dimeric derivatives and the use thereof in the form of sun-protective agents” (Pierre Fabre Dermo-Cosmetique, priority 2004, dated 2010):
Several values for one entry are separate records, joined by “and”; a condition that tells them apart may be missing. Identical values can stand only once.

What was measured:
[1] = Spectral characteristics: molar extinction coefficient and specific absorbance (UV spectrophotometry in ethyl acetate); assay type: physicochemical; conditions: 10 μg/ml
From the text: The calculation of the molar extinction coefficient (ε) is made from the Beer-Lambert law:
[formula] Wherein: • A=absorbance • I0=intensity of the incident light • I=intensity of the transmitted light • ε=molar extinction (or molar absorbance) coefficient in M^−1 cm^−1 • l=path length in cm • c=concentration in mol/l
The molar extinction coefficient can be expressed with respect to a given mass of the product. It thus makes it possible to be able to compare the coefficients of extinction between products for the same given quantity. This quantity is 1% by weight. The molar extinction coefficient thus becomes the specific absorbance (A1cm^1%).
It is expressed as follows:
[formula] Wherein: • A1cm^1%=specific absorbance • ε=molar extinction coefficient • M=molar mass
The spectral characteristics of the compounds in comparison with commercial filters at a concentration of 10 μg/ml are summarized in tables 2-1 and 2-2.
Procedure: The products are dissolved in ethyl acetate to a concentration of 10 μg/ml. The spectra are measured using a dual-beam spectrophotometer (Varian CARY 50 Scan) between 290 nm and 400 nm.

[2] = Spectral distribution in UVA and UVB, 290 nm to 400 nm; assay type: physicochemical; conditions: for Spectral distribution (UV bands absorbed): absorption spectra, FIGS. 1-3; for Absorption peaks: range from 290 nm to 400 nm
From the text: The products tested are classified according to spectral distribution in UVA and UVB in a range from 290 nm to 400 nm. It is possible to differentiate them according to their spectral distribution: Products with a narrow spectrum: • Products absorbing in the range between 280 nm and 320 nm (UVB) • Products absorbing in the range between 320 nm and 400 nm (UVA) Products with a broad spectrum: • Products absorbing in UVB (280-320 nm) and UVA-II […] • Products covering UVB and UVA (280-400 nm).

[3] = In vitro SPF measurement in a chemical solvent (Diffey and Robson); conditions: ethyl acetate, 10 μg/ml, transmittance 290-400 nm
Experimental: The in vitro methods of determining the protective effectiveness of sun products consist of measuring by transmission spectrophotometry the absorption spectrum of the filter in solution or of the product applied on a substrate with the aim of simulating the surface of the skin. The effectiveness against UVB and/or UVA rays, or the effect on the cutaneous response, are then determined by calculation, taking into account or not the UV radiation action spectrum for the damage considered.
The Sayre/Agin and Diffey/Robson method, used since the 1990s, involves a comparative measurement, with the aid of an integrating-sphere spectroradiometer, of the transition from 290 nm to 400 nm in 5 nm steps, the sample being subjected to UV radiation from a stable known source covering the whole of the UV spectrum (unfiltered xenon).
Diffey and Robson evaluate the erythemal response by the following calculation:
[formula] E(λ)=spectral irradiation in W(m-^2) (nm^−1) at 40° N sun at 20° zenith angle • ε=erythematous capacity
[formula] N(λ)=number of values for a given wavelength
The Diffey and Robson formula makes it possible to determine SPF from the measurement of transmittance between 290 nm and 400 nm. Transmittance is measured in solution in ethyl acetate at a concentration of 10 μg/ml using a UV-visible spectrophotometer (Varian CARY 50 Scan).
[formula] T(λ)=transmittance at wavelength λ

[4] = Photostability in solution in a chemical solvent (Suntest CPS+); assay type: physicochemical; conditions: 25 μg deposited from methanol, absorbance vs non-irradiated control, in % (unit assumed); for Photostability at 5 MED, mean: Suntest irradiation 5 MED; for Photostability at 10 MED, mean: Suntest irradiation 10 MED
From the text: A Suntest CPS+(Atlas, Linsengenicht/Altenhasslan, Germany) was used. The Suntest makes it possible to reproduce the solar spectrum and thus to carry out exposures inside at any time without weather constraints.
The radiance of the solar simulator was carefully measured with a spectroradiometer (MSS 2044, Bielefeld, Germany). UVB and UVA intensities were 0.49 mW/cm^2 and 6.32 mW/cm^2, respectively. The MED value defined by COLIPA is 5.6 J/cm^2 in total UV (22). The UV total (UVA+UVB) accounts for 14.8% of the energy delivered by the lamp (power 460 W/m^2). An irradiation dose equivalent to 1 MED corresponds to 37.83 J/cm^2 (in total spectrum) delivered by the lamp.
The Suntest test duration is calculated using the following formula: t=H/E with: • E=illumination energy in W/m^2 • H=irradiation dose in J/m^2 • t=duration of the test in s
The solutions of the compounds are prepared at a concentration of 500 μg/ml in methanol. 50 μl (25 μg) of each solution are deposited in a crystallizer, then irradiated in the Suntest at 5, 10 and/or 20 MED. A non-irradiated control is prepared (deposit of 50 μl of solution and addition of 2.450 ml of methanol). The solvent evaporates during irradiation and the products are taken up in 2.5 ml of methanol. After irradiation, the absorbance of each solution is measured with the UV-visible spectrophotometer (Varian CARY 50 Scan).

[5] = Solubility study in solvents or excipients used in cosmetics; assay type: physicochemical

SMILES | Maximum molar extinction coefficient UVA ([1]; UVA band) | Maximum specific absorbance UVA ([1]; A1cm^1%, UVA band) | Wavelength of maximum molar extinction coefficient UVA ([1]; the 'at ...' part of the cell) | Wavelength of maximum specific absorbance UVA ([1]; the 'at ...' part of the cell) | Spectral distribution (UV bands absorbed) [2] | Absorption peaks [2] | SPF [3] | Photostability at 5 MED, mean [4] | Photostability at 10 MED, mean [4] | Solubility (%) ([5]; excipient Finsol V NT ® (C12-C15 alkyl benzoate)) | Solubility (%) ([5]; excipient Isopropyl adipate) | Solubility (%) ([5]; excipient Myritol 331 ® (cocoglycerides)) | Solubility (%) ([5]; excipient PEG400 ® (polyethylene glycol)) | Maximum molar extinction coefficient UVB ([1]; UVB band) | Maximum specific absorbance UVB ([1]; A1cm^1%, UVB band) | Wavelength of maximum molar extinction coefficient UVB ([1]; the 'at ...' part of the cell) | Wavelength of maximum specific absorbance UVB ([1]; the 'at ...' part of the cell) | Solubilities: Soluble (solvent in which the compound is soluble) ([5]; value = solvent) | Solubilities: Insoluble (solvent in which the compound is insoluble) ([5]; value = solvent named in the Insoluble column)
CC(C)CCC(C)(C)c1ccc(-c2nnc(-c3ccc(-c4nnc(-c5ccc(C(C)(C)CCC(C)C)cc5)c(-c5ccc(C(C)(C)CCC(C)C)cc5)n4)cc3)nc2-c2ccc(C(C)(C)CCC(C)C)cc2)cc1 [WP151] | 60500 M⁻¹ cm⁻¹ | 611 | at 340 nm | at 340 nm | absorb in UVB and UVA | 340 nm | 67.2 | 76.16 | 70.15 | 5% | 1% | 2% | 0.5% |  |  |  |  |  | 
CC(C)(C)c1ccc(-c2nnc(-c3ccc(-c4nnc(-c5ccc(C(C)(C)C)cc5)c(-c5ccc(C(C)(C)C)cc5)n4)cc3)nc2-c2ccc(C(C)(C)C)cc2)cc1 [WP104, 1,4-bis[5,6-(4,4′-4-di-tert-butyl)-diphenyl-1,2,4-triazin-3-yl]benzene] |  |  |  |  | absorb in UVB and UVA | 300 nm | 79.35 | 93.70 | 88.55 |  |  |  |  | 90000 M⁻¹ cm⁻¹ | 1176 | at 300 nm | at 300 nm | DCM and CHCl3 and Toluene and DMSO and Ethyl acetate | EtOH and MeOH and 1-Octanol and Acetic acid and Myritol and Transcutol
